Measurements from patent US4885299A, “2-(2,3-dihydro-2-oxo-3-benzofuranyl)acetic acids antihypoxic and nootropic effects having” (ADIR Et Cie, priority 1987, dated 1989).
Counter-ions that a name gives are not always drawn.

Key:
[1] = test system: Acute hypoxia in mice; survival of the brain; assay: Acute hypoxia in mice (hypobaric); brain survival time to final respiratory gasp; format: in vivo, Male CD1 mice (Charles River); conditions: 30 minutes before hypoxia, mice; for change in vivo at 300 mg/kg: 300 mg/kg I.P.
Experimental: (§1) The compounds of the present invention were tested in respect of their capacity to prolong the survival of cerebral tissue during acute hypoxia in mice, or to maintain the level of tissue energy-rich compounds in rats subjected to a fall in the oxygen supply [Pharmacology of Cerebral Ischemia, p. 334-339 (1968) Elsevier Science Publishers B.V., J. Krieglstein ed.]. […] Forsch. Drug. Res. (1986), 36 II No. 9, p. 1314-1320].
The survival of the brain is assessed by measuring the time at which the final respiratory gasp is observed.
The survival time of a treated batch is compared with that of a control batch receiving only the solvent.
The percentage increase in the survival time after the animals are treated with the compounds of the invention is shown in Table II.

[2] = test system: brain energy-rich compounds (ATP, ADP, AMP); assay: Acute hypoxia in rats; protection of tissue energy-rich compounds in brain (ATP, energy content); format: in vivo, Male Fischer 344 rats (Charles River); conditions: 3% oxygen for 2 minutes
Experimental: as §1
Whereas the control rats breath a gaseous mixture containing 21% of oxygen and 79% of nitrogen, the rats subjected to hypoxia breath a mixture of 3% oxygen and 97% nitrogen for 2 minutes.
At the end of the hypoxic period, the animals are rapidly sacrificed by total immersion in liquid nitrogen. The frozen brain is removed and the energy-rich compounds (ATP, ADP, AMP) are extracted and assayed by the luciferin luminescence method.
The tissue energy content (EC) is calculated according to ATKINSON's formula: [formula]

[3] = Mus musculus, ip, 100 mg/kg I.P., read-out: Percentage increase in the survival time
[4] = Mus musculus, ip, read-out: Percentage increase in the survival time
[5] = Mus musculus, ip, 10 mg/kg I.P., read-out: Percentage increase in the survival time
[6] = Mus musculus, ip, 30 mg/kg I.P., read-out: Percentage increase in the survival time

SMILES | change in vivo at 100 mg/kg [1, 3] | change in vivo at 30 mg/kg [1, 6] | also measured
O=C(O)CC1(c2ccccc2)C(=O)Oc2ccc(Cl)cc21 (stereo not shown) [Example 1, 2-(5-Chloro-2,3-dihydro-2-oxo-3-phenyl-3-benzofuranyl)acetic acid] | 46% | – | % inhibition of the effects of hypoxia, ATP ([2]; 100 mg/kg I.P.): 54%; % inhibition of the effects of hypoxia, EC (tissue energy content) ([2]; 100 mg/kg I.P.): 61.7%
O=C(O)CC1(c2ccccc2)C(=O)Oc2ccc(F)cc21 (stereo not shown) [Example 2, 2-(2,3-Dihydro-5-fluoro-2-oxo-3-phenyl-3-benzofuranyl)acetic acid] | 38% | – | –
O=C(O)CC1(c2ccccc2)C(=O)Oc2ccccc21 (stereo not shown) [Example 3, 2-(2,3-Dihydro-2-oxo-3-phenyl-3-benzofuranyl) acetic acid] | 29% | – | –
O=C(O)CC1(c2ccc(Cl)cc2)C(=O)Oc2ccccc21 (stereo not shown) [Example 4, 2-[3-(4-Chlorophenyl)-2,3-dihydro-2-oxo-3-benzofuranyl)acetic acid] | 17% | – | –
O=C(O)CC1(c2ccccc2)C(=O)Oc2ccc(O)cc21 (stereo not shown) [Example 5, 2-(2,3-Dihydro-5-hydroxy-2-oxo-3-phenyl-3-benzofuranyl)acetic acid] | 69% | – | –
COc1ccc2c(c1)C(CC(=O)O)(c1ccccc1)C(=O)O2 (stereo not shown) [Example 6, 2-(2,3-Dihydro-5-methoxy-2-oxo-3-phenyl-3-benzofuranyl)acetic acid] | 41% | – | –
O=C(CC1(c2ccccc2)C(=O)Oc2ccc(O)cc21)OCc1ccccc1 (stereo not shown) [Example 7] | 14% | – | change in vivo at 300 mg/kg [1, 4]: 156%
CCOC(=O)CC1(c2ccccc2)C(=O)Oc2ccc(Cl)cc21 (stereo not shown) [Example 8, 2-(5-Chloro-2,3-dihydro-2-oxo-3-phenyl-3-benzofuranyl)acetic acid ethyl ester] | 52% | – | –
O=C(CC1(c2ccccc2)C(=O)Oc2ccc(Cl)cc21)N1CCN(c2ccc(C(F)(F)F)cn2)CC1 (stereo not shown) [Example 9, 2-(5-Chloro-2,3-dihydro-2-oxo-3-phenyl-3-benzofuranyl)-1-[4-(5-trifluoromethyl-2-pyridyl)piperazinyl]-1-oxoethane] | – | – | Percentage increase in the survival time ([1]; 3 mg/kg I.P.): +65%; Percentage increase in the survival time ([1]; 10 mg/kg I.P.): +82%; Percentage increase in the survival time ([1]; 30 mg/kg I.P.): +77%; Percentage increase in the survival time ([1]; 100 mg/kg I.P.): greater than 180%; Percentage increase in the survival time ([1]; 100 mg/kg I.P., listed as Ex. 9): +183%; % inhibition of the effects of hypoxia, ATP ([2]; 30 mg/kg I.P.): 65.6%; % inhibition of the effects of hypoxia, EC (tissue energy content) ([2]; 30 mg/kg I.P.): 60.1%
CCN(CC)C(=O)CC1(c2ccccc2)C(=O)Oc2ccc(Cl)cc21 (stereo not shown) [Example 10, N,N-Diethyl-2-(5-chloro-2,3-dihydro-2-oxo-3-phenyl-3-benzofuranyl)acetamide] | 97% | – | –
CC(C)C[C@@H](C(=O)O)N(C)C(=O)CC1(c2ccccc2)C(=O)Oc2ccc(Cl)cc21 (stereo partly shown) [Example 11, N-Methyl-N-[2-(5-chloro-2,3-dihydro-2-oxo-3-phenyl-3-benzofuranyl)acetyl]leucine] | 159% | – | –
CCN(CC)CCN(C)C(=O)CC1(c2ccccc2)C(=O)Oc2ccc(Cl)cc21 (stereo not shown) [Example 12, N-Methyl-N-diethylaminoethyl-2-(5-chloro-2,3-dihydro-2-oxo-3-phenyl-3-benzofuranyl)acetamide hydrochloride] | > 180% | 84% | change in vivo at 3 mg/kg ([1]; Mus musculus, ip, 3 mg/kg I.P., read-out: Percentage increase in the survival time): 32%; change in vivo at 10 mg/kg [1, 5]: 41%
O=C(O)[C@@H]1CCCN1C(=O)CC1(c2ccccc2)C(=O)Oc2ccc(Cl)cc21 (stereo partly shown) [Example 13, N-[2-(5-chloro-2,3-dihydro-2-oxo-3-phenyl-3-benzofuranyl)acetyl]proline] | 8% | – | –
O=C(CC1(c2ccccc2)C(=O)Oc2ccc(Cl)cc21)N1CCOCC1 (stereo not shown) [Example 14, 2-(5-Chloro-2,3-dihydro-2-oxo-3-phenyl-3-benzofuranyl)-1-morpholino-1-oxoethane] | 88% | – | –
O=C(CC1(c2ccccc2)C(=O)Oc2ccc(Cl)cc21)N1CCN(CCO)CC1 (stereo not shown) [Example 15, 2-(5-Chloro-2,3-dihydro-2-oxo-3-phenyl-3-benzofuranyl)-1-[4-(2-hydroxyethyl)piperazinyl]-1-oxoethane hydrochloride] | > 130% | 41% | change in vivo at 10 mg/kg [1, 5]: 34%; change in vivo at 200 mg/kg ([1]; Mus musculus, ip, 200 mg/kg I.P., read-out: Percentage increase in the survival time): 203%
O=C(CC1(c2ccccc2)C(=O)Oc2ccc(Cl)cc21)N1CCN(Cc2ccccc2)CC1 (stereo not shown) [Example 17, 2-(5-Chloro-2,3-dihydro-2-oxo-3-phenyl-3-benzofuranyl)-1-(4-benzylpiperazinyl)-1-oxoethane] | 66% | 40% | –
O=C(CC1(c2ccccc2)C(=O)Oc2ccc(Cl)cc21)N1CCN(c2cccc(C(F)(F)F)c2)CC1 (stereo not shown) [Example 18, 2-(5-Chloro-2,3-dihydro-2-oxo-3-phenyl-3-benzofuranyl)-1-[4-(3-trifluoromethylphenyl)piperazinyl)-1-oxoethane hydrochloride] | 88% | 53% | change in vivo at 10 mg/kg [1, 5]: 41%; change in vivo at 300 mg/kg [1, 4]: 103%
Cc1cccc(N2CCN(C(=O)CC3(c4ccccc4)C(=O)Oc4ccc(Cl)cc43)CC2)c1 (stereo not shown) [Example 19, 2-(5-Chloro-2,3-dihydro-2-oxo-3-phenyl-3-benzofuranyl)-1-[4-(3-methylphenyl)piperazinyl]-1oxoethane hydrochloride] | 76% | – | –
CN(CC(=O)O)C(=O)CC1(c2ccccc2)C(=O)Oc2ccccc21 (stereo not shown) [Example 21, N-Methyl-N-[2-(2,3-dihydro-2-oxo-3-phenyl-3-benzofuranyl)acetyl]glycine] | 14% | – | –
O=C(CC1(c2ccccc2)C(=O)Oc2ccccc21)N1CCN(Cc2ccc3c(c2)OCO3)CC1 (stereo not shown) [Example 22, 2-(2,3-Dihydro-2-oxo-3-phenyl-3-benzofuranyl)-1-[4-(3,4-methylenedioxybenzyl)piperazinyl]-1-oxoethane hydrochloride] | 126% | 42% | Percentage increase in the survival time ([1]; 100 mg/kg I.P., listed as Ex. 22, hydrochloride): +126%; change in vivo at 10 mg/kg [1, 5]: 11%
Cc1cccc(CN2CCN(C(=O)CC3C(=O)Oc4ccccc43)CC2)c1 (stereo not shown) [Example 25, 2-(2,3-Dihydro-2-oxo-3-benzofuranyl)-1-[4-(3-methylbenzyl)piperazinyl]-1-oxoethane hydrochloride] | – | – | % inhibition of the effects of hypoxia, ATP ([2]; 100 mg/kg I.P.): 50.5%; % inhibition of the effects of hypoxia, EC (tissue energy content) ([2]; 100 mg/kg I.P.): 52.6%
Cc1cccc(N2CCN(C(=O)CC3C(=O)Oc4ccc(Cl)cc43)CC2)c1 (stereo not shown) [Example 26, 2-(5-Chloro-2,3-dihydro-2-oxo-3-benzofuranyl)-1-[4-(3-methylphenyl)piperazinyl]-1-oxoethane hydrochloride] | > 130% | 53% | change in vivo at 10 mg/kg [1, 5]: 52%; change in vivo at 300 mg/kg [1, 4]: 190%
O=C(CC1(c2ccccc2)C(=O)Oc2ccc(Cl)cc21)N1CCN(c2cc(C(F)(F)F)ccn2)CC1 (stereo not shown) [Example 27, 2-(5-Chloro-2,3-dihydro-2-oxo-3-phenyl-3-benzofuranyl)-1-[4-(4-trifluoromethyl-2-pyridyl)piperazinyl]-1-oxoethane] | 76% | 59% | change in vivo at 10 mg/kg [1, 5]: 36%
CN(C(=O)CC1(c2ccccc2)C(=O)Oc2ccc(Cl)cc21)[C@@H](Cc1ccccc1)C(=O)O (stereo partly shown) [Example 28, N-[2-(5-Chloro-2,3-dihydro-2-oxo-3-phenyl-3-benzofuranyl)acetyl]-N-methylphenylalanine] | 90% | – | –
O=C(O)CN1CCN(C(=O)CC2(c3ccccc3)C(=O)Oc3ccc(Cl)cc32)CC1 (stereo not shown) [Example 29, 2-(5-Chloro-2,3-dihydro-2-oxo-3-phenyl-3-benzofuranyl)-1-(4-carboxymethylpiperazinyl)-1-oxoethane hydrochloride] | 66% | 32% | –
COc1cccc(C2CCCN(C(=O)CC3(c4ccccc4)C(=O)Oc4ccc(Cl)cc43)C2)c1 (stereo not shown) [Example 30, 2-(5-Chloro-2,3-dihydro-2-oxo-3-phenyl-3-benzofuranyl)-1-[3-(3-methoxyphenyl)piperidyl]-1-oxoethane] | 103% | 36% | change in vivo at 10 mg/kg [1, 5]: 32%
CCN1CCCC1CN(C)C(=O)CC1(c2ccccc2)C(=O)Oc2ccc(Cl)cc21 (stereo not shown) [Example 32, 2-(5-Chloro-2-oxo-3-phenyl-3-benzofuranyl)-1-[(1-ethylpyrrolidinyl)methyl]methylamino-1-oxoethanehydrochloride] | – | 26% | –
